Test results taken from US20140275090A1, “BILE ACID RECYCLING INHIBITORS FOR TREATMENT OF PRIMARY SCLEROSING CHOLANGITIS AND INFLAMMATORY BOWEL DISEASE” (Lumena Pharmaceuticals, Inc., priority 2013, published 2014).

Tests used:
[1] = system: Hepatic Cholesterol 7α-hydroxylase; test: Cholesterol 7-α hydroxylase activity assay, hamster liver microsomes; format: in vivo, golden Syrian hamster; conditions: 28 days
From the text: Male golden Syrian hamsters (126-147 gm) were obtained from Charles Rivers Laboratories and were single housed in a constant temperature environment with alternating 12-hour light and dark cycles. Hamsters were fed Teklad 7001 rodent meal chow at libitum for two weeks before the experimental studies began and switched to Teklad 7001 rodent meal chow supplemented with 0.24% cholesterol on day one of the 28-day experiment. Water was continuously available to the animals. Hamsters were assigned to groups in a manner that normalized each group by pretreatment body weights. SD-5613 was dissolved in an aqueous solution of 0.2% (w/v) Tween 80 and administered Q.D. by intragastric gavage between 9 a.m. and 10 a.m. each morning using a syringe fitted with a flexible feeding tube. Blood samples were collected after 14- and 28-day treatment periods by orbital sinus and cardiac puncture, respectively. Hamsters were anesthetized but not fasted prior to blood collections. Fecal samples were collected during a 48-hour period at the end of days 14 and 28 (i.e. days 13-14 and 27-28). Hamsters were sacrificed using carbon dioxide asphyxiation to obtain the following tissue samples: liver, kidneys, colon and cecum.
Homogenates of three gram liver tissue samples were prepared in 25 ml homogenization buffer [0.1 M potassium phosphate buffer, pH 7.2, containing 0.1 M sucrose, 50 mM KCl, 50 mM NaF, 5 mM ethylene glycol-bis(β-aminoethyl ether)-N,N,N′,N′-tetraacetic acid (EGTA), 1 mM EDTA, 3 mM dithiothreitol (DTIT), and 1 mM phenylmethylsulfonyl fluoride (PMSF)]. A microsomal fraction was prepared by centrifugation at 10,000×g for ten minutes. The supernatant was subjected to centrifugation at 105,000×g for two hours. The microsomal fraction was resuspended in a 0.1 M Na tetrapyrophosphate buffer (pH 10), with 50 mM NaF, and 1 mM EDTA, and subjected to centrifugation for one hour at 105,000×g. The microsomal fraction was resuspended in the homogenization buffer, and assayed for protein content by Coomassie Protein Plus Assay reagent.
Liver microsomes (1 mg) or 7-α-hydroxycholesterol standard solutions were preincubated for five minutes at 37° C. in a rocking water bath with 500 μl 5× buffer, 1.7 ml water, and 50 μl 0.1% (w/v) cholesterol as substrate in excess. The 5× buffer consists of 0.42 M Na2HPO4, 0.25 mM NaF, 0.08 M KH2PO4, 5 mM EDTA and 10 mM DTT. The reaction tubes were incubated at 37° C. in a rocking water bath throughout the remainder of the assay protocol, with cessation of rocking only for the period of time needed to add solutions. After the preincubation period, 250 μl of 10 mM NADPH was added and incubated for 5 minutes to allow enzymatic conversion of the cholesterol substrate to 7-α-hydroxycholesterol by endogenous 7-α-hydroxylase. The reaction was stopped by addition of 75 μl of 20% sodium cholate. After four minutes, 25 μl of 100 μM 20-α-hydroxycholesterol was added to each tube as an internal recovery standard. The tubes were allowed to rock briefly in the water bath to mix, then 40 μl of 25 U/ml cholesterol oxidase was added and the tubes were incubated for ten minutes to convert 7-α-hydroxycholesterol and 20-α-hydroxycholesterol to their ketone forms, 7-α-hydroxycholesten-3-one and 20-α-hydroxycholesten-3-one. After the enzymatic reactions were completed, the ketone products were isolated by four sequential extractions in 20, 10, 10 and 10 ml petroleum ether, respectively. The collected volumes were evaporated to dryness under a flow of nitrogen gas between each extraction step using a heat block set at 50° C. The final dried samples were resuspended in 125 μl mobile phase solution consisting of 70:30 acetonitrile/methanol for analysis by reversed phase HPLC. Chromatography was performed on a 4.6×250 mm Beckman Ultrosphere ODS reverse phase column in mobile phase solution. […]

[2] = Toxicokinetics of LUM001 free form, 13-week oral capsule toxicity study in dogs; format: in vivo, Beagle dog; conditions: 13-wk dog capsule, 20 mg/kg
Procedure: Six- to seven-month old Beagle dogs of body weights of 4.9-9.5 kg (4/sex/group) orally via capsules at 0, 5, 20 or 100 mg/kg for 13 consecutive weeks. Plasma levels of LUM001 (free form) were evaluated on Days 1 and 91. LUM001 was administered by once daily oral gelatin capsules. […] therefore, 105% of a stated dose is given to provide the appropriate amount of compound for dosing. On study Day 1 and Day 91, approximately 2 mL of venous blood was collected in heparinized tubes from the cephalic vein of each animal at 1, 2, 3, 5, 8, and 24 hours post-dose. Blood collection tubes were mixed and placed on ice during the collection period after which they were centrifuged and the plasma was harvested into cryotubes within approximately 60 minutes of blood collection. Plasma samples were stored at approximately −70° C. or lower until analyzed.
The concentration of LUM001 free form in plasma were determined using an LC/MS/MS method. The assay sensitivity was 5.00 ng/mL for a 100 mL sample.

CCCCC1(CCCC)CS(=O)(=O)c2ccc(N(C)C)cc2[C@@H](c2ccc(OCc3ccc(C[N+]45CCN(CC4)CC5)cc3)cc2)[C@H]1O [LUM001]
Hepatic Cholesterol 7α-hydroxylase ([1]; 5 mg/kg/day): 50.9 ± 4.8 pmol/mg-port/min
Hepatic Cholesterol 7α-hydroxylase, % change from vehicle group ([1]; 5 mg/kg/day): (+52) %
Hepatic Cholesterol 7α-hydroxylase ([1]; 15 mg/kg/day): 56.5 ± 4.5 pmol/mg-port/min
Hepatic Cholesterol 7α-hydroxylase, % change from vehicle group ([1]; 15 mg/kg/day): (+69) %
Hepatic Cholesterol 7α-hydroxylase ([1]; 50 mg/kg/day): 63.8 ± 5.6 pmol/mg-port/min
Hepatic Cholesterol 7α-hydroxylase, % change from vehicle group ([1]; 50 mg/kg/day): (+90) %
Cmax ([2]; Day 1, Comb): 25.1 ng/mL
Cmax ([2]; Day 91, F): 25.0 ng/mL
